Assay results: US5091392A, “Substituted (quinolin-2-yl-methoxy)phenyl-acyl-sulphon-amides and -cyanamides, processes for their preparation and their use in medicaments” (Bayer Aktiengesellschaft, priority 1989, dated 1992)
pIC50: −log10 of the molar value.

Each compound was assayed on lipoxygenase (assay: lipoxygenase inhibition: release of leucotriene B4 (LTB4) from polymorphonuclear rat leucocytes (PMNL) after Ca ionophore, reverse phase HPLC). Conditions: LTB4 release from polymorphonuclear rats leucocytes (PMNL), read-out: LO inhibition IC50.
Format: cell-based
Description: The pharmacological activity data of the substances according to the invention are determined by the following method: As a measure of the lipoxygenase inhibition, the release of leucotriene B4 (LTB4) from polymorphonuclear rats leucocytes (PMNL) was determined after addition of substances and Ca ionophore by means of reverse phase HPLC according to Borgeat, P. et al., Proc. Nat. Acad. Sci., 76, 2148-2152 (1979). The in vivo activity of the compounds was detected using the mouse ear inflammation model according to Young, J. M. et al., J. of Investigative Dermatology, 82, 367-371 (1984).

| Structure (SMILES) | pIC50 |
| --- | --- |
| CN(C(=O)C(c1ccc(OCc2ccc3ccccc3n2)cc1)C1CCCC1)S(=O)(=O)C(F)(F)F (stereo not drawn) [Example 6, N-Methyl-N-{1-[4-(quinolin-2-yl-methoxy)phenyl]-1-cyclopentyl-acetyl}-trifluoromethanesulphonamide] | 7.48 |
| CS(=O)(=O)NC(=O)C(c1ccc(OCc2ccc3ccccc3n2)cc1)C1CCCC1 (stereo not drawn) [Example 1] | 7.57 |
| N#CNC(=O)C(c1ccc(OCc2ccc3ccccc3n2)cc1)C1CCCC1 (stereo not drawn) [Example 7, N-{1-[4-(Quinolin-2-yl-methoxy)phenyl]-1-cyclopentyl}-acetyl-cyanamide] | 7.62 |
